Columns and labels:
[1] = system: barnyardgrass (Echinochloa crus-galli); test: Test B flooded paddy; format: in vivo; settings: Echinochloa crus-galli, 336 h; 250 g ai/ha, Flood, 13 to 15 days, scale 0 (no effect) to 100 (complete control); read-out: Plant response rating, Barnyardgrass
Procedure, shortened: (§1)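 Under a constant 3 cm flood, test compounds went directly into the paddy water. Following 13 to 15 days of greenhouse growth, treated species and controls were compared by eye.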

[2] = system: ducksalad (Heteranthera limosa); test: Test B flooded paddy; format: in vivo; settings: Heteranthera limosa, 336 h; 250 g ai/ha, Flood, 13 to 15 days, scale 0 (no effect) to 100 (complete control); read-out: Plant response rating, Ducksalad
Procedure, shortened: as §1

rice (Oryza sativa) = test: Test B flooded paddy; format: in vivo; settings: Oryza sativa, 336 h; 250 g ai/ha, Flood, 13 to 15 days, scale 0 (no effect) to 100 (complete control); read-out: Plant response rating, Rice
Procedure, shortened: as §1

[3] = system: sedge, umbrella (small-flower umbrella sedge, Cyperus difformis); test: Test B flooded paddy; format: in vivo; settings: Cyperus difformis, 336 h; 250 g ai/ha, Flood, 13 to 15 days, scale 0 (no effect) to 100 (complete control); read-out: Plant response rating, Sedge, Umbrella
Procedure, shortened: as §1

[4] = system: Italian ryegrass (Lolium multiflorum); test: Test A preemergence; format: in vivo; settings: Lolium multiflorum, pre-emergence, 240 h; for pest or weed control at 31 g/ha: 31 g ai/ha; for pest or weed control at 125 g/ha: 125 g ai/ha
Procedure, shortened: (§2)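 Visual 0–100 rating (100 = complete control) taken about 10 d post-treatment relative to untreated checks. Preemergence: directed soil spray on sown loam/sand pots. Postemergence: seedlings 2–10 cm, 1–2 leaf. Non-phytotoxic solvent formulation with surfactant.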

[5] = system: barnyardgrass (Echinochloa crus-galli); test: Test A preemergence; format: in vivo; settings: Echinochloa crus-galli, pre-emergence, 240 h; for pest or weed control at 31 g/ha: 31 g ai/ha, 0 to 100 scale (0 no effect, 100 complete control), read-out: Barnyardgrass plant response rating; for pest or weed control at 125 g/ha: 125 g ai/ha, 0 to 100 scale, read-out: Plant response rating, Barnyardgrass
Procedure, shortened: as §2

[6] = system: giant foxtail (Setaria faberii); test: Test A preemergence; format: in vivo; settings: Setaria faberi, pre-emergence, 240 h; for pest or weed control at 31 g/ha: 31 g ai/ha; for pest or weed control at 125 g/ha: 125 g ai/ha
Procedure, shortened: as §2

kochia (Kochia scoparia) [7] = test: Test A preemergence; format: in vivo; settings: Bassia scoparia, pre-emergence, 240 h; for pest or weed control at 31 g/ha: 31 g ai/ha; for pest or weed control at 125 g/ha: 125 g ai/ha
Procedure, shortened: as §2

[8] = system: pigweed (Amaranthus retroflexus); test: Test A preemergence; format: in vivo; settings: Amaranthus retroflexus, pre-emergence, 240 h; for pest or weed control at 31 g/ha: 31 g ai/ha; for pest or weed control at 125 g/ha: 125 g ai/ha
Procedure, shortened: as §2

[9] = system: ragweed (common ragweed, Ambrosia elatior); test: Test A preemergence; format: in vivo; settings: Ambrosia artemisiifolia, pre-emergence, 240 h; for pest or weed control at 31 g/ha: 31 g ai/ha; for pest or weed control at 125 g/ha: 125 g ai/ha
Procedure, shortened: as §2

[10] = system: Italian ryegrass (Lolium multiflorum); test: Test A postemergence; format: in vivo; settings: Lolium multiflorum, post-emergence, 240 h, 0 to 100 scale, read-out: Plant response rating, Ryegrass, Italian; for pest or weed control at 31 g/ha: 31 g ai/ha; for pest or weed control at 125 g/ha: 125 g ai/ha
Procedure, shortened: as §2

[11] = system: barnyardgrass (Echinochloa crus-galli); test: Test A postemergence; format: in vivo; settings: Echinochloa crus-galli, post-emergence, 240 h, 0 to 100 scale, read-out: Plant response rating, Barnyardgrass; for pest or weed control at 31 g/ha: 31 g ai/ha; for pest or weed control at 125 g/ha: 125 g ai/ha
Procedure, shortened: as §2

[12] = system: blackgrass (Alopecurus myosuroides); test: Test A postemergence; format: in vivo; settings: Alopecurus myosuroides, post-emergence, 240 h, 0 to 100 scale, read-out: Plant response rating, Blackgrass; for pest or weed control at 31 g/ha: 31 g ai/ha; for pest or weed control at 125 g/ha: 125 g ai/ha
Procedure, shortened: as §2

corn (Zea mays) = test: Test A postemergence; format: in vivo; settings: Zea mays, post-emergence, 240 h, 0 to 100 scale; for Corn plant response rating (crop injury, 0 = no effect, 100 = complete kill) at 31 g/ha: 31 g ai/ha; for Corn plant response rating (crop injury, 0 = no effect, 100 = complete kill) at 125 g/ha: 125 g ai/ha
Procedure, shortened: as §2

[13] = system: galium (catchweed bedstraw, Galium aparine); test: Test A postemergence; format: in vivo; settings: Galium, post-emergence, 240 h, 0 to 100 scale, read-out: Plant response rating, Galium; for pest or weed control at 31 g/ha: 31 g ai/ha; for pest or weed control at 125 g/ha: 125 g ai/ha
Procedure, shortened: as §2

[14] = system: giant foxtail (Setaria faberii); test: Test A postemergence; format: in vivo; settings: Setaria faberi, post-emergence, 240 h, 0 to 100 scale, read-out: Plant response rating, Foxtail, Giant; for pest or weed control at 31 g/ha: 31 g ai/ha; for pest or weed control at 125 g/ha: 125 g ai/ha
Procedure, shortened: as §2

kochia (Kochia scoparia) [15] = test: Test A postemergence; format: in vivo; settings: Bassia scoparia, post-emergence, 240 h, 0 to 100 scale, read-out: Plant response rating, Kochia; for pest or weed control at 31 g/ha: 31 g ai/ha; for pest or weed control at 125 g/ha: 125 g ai/ha
Procedure, shortened: as §2

[16] = system: pigweed (Amaranthus retroflexus); test: Test A postemergence; format: in vivo; settings: Amaranthus retroflexus, post-emergence, 240 h, 0 to 100 scale, read-out: Plant response rating, Pigweed; for pest or weed control at 31 g/ha: 31 g ai/ha; for pest or weed control at 125 g/ha: 125 g ai/ha
Procedure, shortened: as §2

[17] = system: ragweed (common ragweed, Ambrosia elatior); test: Test A postemergence; format: in vivo; settings: Ambrosia artemisiifolia, post-emergence, 240 h, 0 to 100 scale, read-out: Plant response rating, Ragweed; for pest or weed control at 31 g/ha: 31 g ai/ha; for pest or weed control at 125 g/ha: 125 g ai/ha
Procedure, shortened: as §2

[18] = system: wheat (Triticum aestivum); test: Test A postemergence; format: in vivo; settings: Triticum aestivum, post-emergence, 240 h, 0 to 100 scale, read-out: Plant response rating, Wheat; for plant injury at 31 g/ha: 31 g ai/ha; for plant injury at 125 g/ha: 125 g ai/ha
Procedure, shortened: as §2

[19] = 0 to 100 scale (0 no effect, 100 complete control), read-out: Ryegrass, Italian plant response rating
[20] = 0 to 100 scale (0 no effect, 100 complete control), read-out: Foxtail, Giant plant response rating
[21] = 0 to 100 scale (0 no effect, 100 complete control), read-out: Kochia plant response rating
[22] = 0 to 100 scale (0 no effect, 100 complete control), read-out: Pigweed plant response rating
[23] = 0 to 100 scale (0 no effect, 100 complete control), read-out: Ragweed plant response rating

| Structure (SMILES) | pest or weed control at 250 g/ha [1] | pest or weed control at 250 g/ha [2] | plant injury at 250 g/ha (rice (Oryza sativa)) | pest or weed control at 250 g/ha [3] | pest or weed control at 31 g/ha [4, 19] | pest or weed control at 31 g/ha [5] | pest or weed control at 125 g/ha [5] | pest or weed control at 31 g/ha [6, 20] | pest or weed control at 31 g/ha (kochia (Kochia scoparia) [7]; [21]) | pest or weed control at 31 g/ha [8, 22] | pest or weed control at 31 g/ha [9, 23] | pest or weed control at 31 g/ha [10] | pest or weed control at 125 g/ha [10] | pest or weed control at 31 g/ha [11] | pest or weed control at 125 g/ha [11] | pest or weed control at 31 g/ha [12] | pest or weed control at 125 g/ha [12] | Corn plant response rating (crop injury, 0 = no effect, 100 = complete kill) at 31 g/ha (corn (Zea mays)) | Corn plant response rating (crop injury, 0 = no effect, 100 = complete kill) at 125 g/ha (corn (Zea mays)) | pest or weed control at 31 g/ha [13] | also measured |
| --- | --- | --- | --- | --- | --- | --- | --- | --- | --- | --- | --- | --- | --- | --- | --- | --- | --- | --- | --- | --- | --- |
| Fc1ccc(F)c(Oc2ncc(Br)cn2)c1Oc1ncc(Br)cn1 [Compound 31] | 0% | 50% | 0% | 50% | 0% | 0% | 70% | 40% | 30% | 70% | 0% | 10% | 30% | 10% | 20% | 20% | 30% | 20% | 30% | 70% | pest or weed control at 125 g/ha [4, 19]: 0%; pest or weed control at 125 g/ha [6, 20]: 90%; pest or weed control at 125 g/ha (kochia (Kochia scoparia) [7]; [21]): 90%; pest or weed control at 125 g/ha [8, 22]: 100%; pest or weed control at 125 g/ha [9, 23]: 20%; pest or weed control at 125 g/ha [13]: 100%; pest or weed control at 31 g/ha [14]: 20%; pest or weed control at 125 g/ha [14]: 40%; pest or weed control at 31 g/ha (kochia (Kochia scoparia) [15]): 20%; pest or weed control at 125 g/ha (kochia (Kochia scoparia) [15]): 80%; pest or weed control at 31 g/ha [16]: 90%; pest or weed control at 125 g/ha [16]: 90%; pest or weed control at 31 g/ha [17]: 0%; pest or weed control at 125 g/ha [17]: 0%; plant injury at 31 g/ha [18]: 20%; plant injury at 125 g/ha [18]: 30%; melting point: 166 to 170 °C |
| FC(F)c1cnc(Oc2c(Br)cccc2Oc2ncc(Cl)cn2)s1 [Compound 10, 2-[3-bromo-2-[[5-(difluoromethyl)-2-thiazolyl]oxy]phenoxy]-5-chloropyrimidine] | 0% | 0% | 0% | 0% | 0% | 0% | 30% | 40% | 0% | 90% | 0% | 0% | 60% | 0% | 20% | 10% | 70% | 0% | 10% | 50% | pest or weed control at 125 g/ha ([4]; 0 to 100 scale, read-out: Plant response rating, Ryegrass, Italian): 40%; pest or weed control at 125 g/ha ([6]; 0 to 100 scale, read-out: Plant response rating, Foxtail, Giant): 90%; pest or weed control at 125 g/ha (kochia (Kochia scoparia) [7]; 0 to 100 scale, read-out: Plant response rating, Kochia): 50%; pest or weed control at 125 g/ha ([8]; 0 to 100 scale, read-out: Plant response rating, Pigweed): 100%; pest or weed control at 125 g/ha ([9]; 0 to 100 scale, read-out: Plant response rating, Ragweed): 0%; pest or weed control at 125 g/ha [13]: 100%; pest or weed control at 31 g/ha [14]: 0%; pest or weed control at 125 g/ha [14]: 20%; pest or weed control at 31 g/ha (kochia (Kochia scoparia) [15]): 20%; pest or weed control at 125 g/ha (kochia (Kochia scoparia) [15]): 80%; pest or weed control at 31 g/ha [16]: 90%; pest or weed control at 125 g/ha [16]: 100%; pest or weed control at 31 g/ha [17]: 0%; pest or weed control at 125 g/ha [17]: 30%; plant injury at 31 g/ha [18]: 0%; plant injury at 125 g/ha [18]: 0%; melting point: 113 to 116 °C |
